The source of these data is US5602277A, “Substituted benzene derivatives useful as neuraminidase inhibitors” (priority 1995, dated 1997).

As usually defined, the % Inhibition is the relative decrease from the control value, in per cent. A low value points to a weak effect. As usually defined, the pIC50 is the negative decadic logarithm of the IC50, by convention in mol/L. Low values mean a large IC50, high ones a small IC50.

pIC50: −log10 of the molar value. Counter-ions that a name gives are not always drawn.

For the first test, the system named is HA. The settings on record: cited from earlier work.
For `CC(=O)N[C@H]1[C@H]([C@H](O)[C@H](O)CO)OC(C(=O)O)=C[C@@H]1O` [DANA, 2-deoxy-2,3-didehydro-N-acetylneuraminic acid], the “inhibition of HA in vitro” value is “inhibit”.

Test system in a further test: not given
The settings on record: cited from earlier work.
Take `CC(=O)N[C@H]1[C@H]([C@H](O)[C@H](O)CO)OC(C(=O)O)=C[C@@H]1O` [DANA, 2-deoxy-2,3-didehydro-N-acetylneuraminic acid]: the activity in vivo entry was “inactive”.

For the next test, the system named is influenza virus neuraminidase. The format is biochemical. The settings on record: compound @ 3.3 mM; substrate 75 μM, pH 6.5, 5 min at 37° C.
Take `O=C(O)c1ccc(NC(=O)C(F)(F)F)cc1` [Example 9, 4-(Trifluoroacetamido)benzoic acid]: the “% Inhibition” value amounted to 56%.

Staying with this test, now noted: compound @ 3.5 mM; substrate 75 μM, pH 6.5, 5 min at 37° C.
Consider `N=C(N)Cc1cccc(C(=O)O)c1` [Example 23, 3-(2-Amino-2-imino)ethylbenzoic acid complex with water (5:1)], for which the “% Inhibition” value was 22%.

Staying with this test, now noted: substrate 75 μM, pH 6.5, 5 min at 37° C.
On to “3-[(Aminoiminomethyl)amino]-4-[(methylamino)carbonyl]benzoic acid hydrochloride, complex with water and methanol (4:4:4:1 and 5:5:5:1) [Example 53]”, for which the pIC50 was 5.30.
With `CC(=O)Nc1ccc(C(=O)O)cc1CC(O)CO` (single isomer, unassigned; isomer a) [Example 35, 4-Acetylamino-3-(2',3'-dihydroxypropyl)benzoic acid, solvate with water [5:1] (Isomer A)], the “% Inhibition at 7 nM” value came out at 25% and the pIC50 is 1.70.
For `CC(=O)Nc1ccc(C(=O)O)cc1CC(O)CO` (single isomer, unassigned; isomer b) [Example 36, 4-Acetylamino-3-(2',3'-dihydroxypropyl)benzoic acid, solvate with water [4:3](Isomer B)], the “% Inhibition at 7 nM” value was found to be 35%.
Consider `N=C(N)Nc1ccccc1` [Example 1, Phenylguanidine carbonate hydrate (2:1:1)], for which the “% Inhibition at 7 nM” value turned out to be 44%.
For `N=C(N)NC(=N)Nc1ccccc1` [Example 3, 1-Phenylbiguanide], the “% Inhibition at 7 nM” value was 75% and the pIC50 was 2.26.
For the molecule `CC(=O)Nc1ccc(C(=O)O)cc1` [Example 4, 4-Acetylaminobenzoic acid], the “% Inhibition at 7 nM” value amounted to 39%.
Same read-out and setting: in the case of `CC(=O)Nc1ccc(S(=O)(=O)O)cc1` [Example 6, 4-Acetylaminobenzenesulfonic acid hydrate (4:1)] it was 30%.
As to `CC(=O)Nc1ccc(P(=O)(O)O)cc1` [Example 7, 4-Acetylaminophenylphosphonic acid], the “% Inhibition at 7 nM” value turned out to be 32%.
For the molecule `CC(=S)Nc1ccc(C(=O)O)cc1` [Example 10, 4-Thioacetamidobenzoic acid], the pIC50 was 3.00.
As for `CS(=O)(=O)Nc1ccc(C(=O)O)cc1` [Example 16, 4-[(Methylsulfonyl)amino]benzoic acid], the “% Inhibition at 7 nM” value is recorded as 34%.
In turn, `N=C(N)Nc1cccc(C(=O)O)c1` [Example 17, 3-Guanidinobenzoic acid hydrochloride (2:1)] gave a pIC50 of 2.30.
Take `N#CN=C(N)Nc1cccc(C(=O)O)c1` [Example 18, 3-[Amino(cyanoimino)methyl]aminobenzoic acid hydrate (4:1)]: the “% Inhibition at 7 nM” value stood at 68%.
The molecule `N#CNc1cccc(C(=O)O)c1` [Example 21, 3-Cyanoaminobenzoic acid hydrate (5:1)] gave a pIC50 of 2.40.
In the case of `CC(=O)Nc1ccc(CC(=O)O)cc1` [Example 26, 4-(Acetamido)phenylacetic acid], the “% Inhibition at 7 nM” value was 15%.
On the same count and under the same terms, as for `CNC(=O)c1ccc(C(=O)O)cc1` [Example 27, 4-(Methylaminocarbonyl)benzoic acid], the figure is 27%.
Still for that read-out and setting: as for `CC(=O)Nc1ccc(C(=O)O)cc1CO.[Na+].[OH-]` [Example 31, 4-Acetylamino-3-hydroxymethylbenzoic acid, complex with NaOH [5:3]], the figure is 31%; as for `CC(=O)Nc1ccc(C(=O)O)cc1CCO` [Example 33, β-(2-N-Acetylamino-5-carboxyphenyl)ethanol], 42%.
For the molecule `CC(=O)Nc1ccc(C(=O)O)cc1N` [Example 37, 4-Acetylamino-3-aminobenzoic acid hydrochloride (2:1)], the “% Inhibition at 7 nM” value came out at 28% and the pIC50 was 1.85.
`CC(C)C(=O)Nc1ccc(C(=O)O)cc1NC(=N)N` [Example 40, 3-[(Aminoiminomethyl)amino]-4-(2-methylpropionylamino)benzoic acid hydrate [2:1]]: the pIC50 was 3.00.
With `CC(=O)Nc1ccc(C(=O)O)cc1C=NO` [Example 42, 4-Acetylamino-3-[(hydroxylimino)methyl]benzoic acid hydrate (4:1)], the pIC50 is 2.26.
Still for that read-out and setting: in the case of `CS(=O)(=O)Nc1ccc(C(=O)O)cc1NC(=N)N` [Example 43, 3-[(Aminoiminomethyl)amino]-4-[(methylsulfonyl)amino]benzoic acid, solvate with water (2:1)] it was 4.00.
For the molecule `COc1ccc(C(=O)O)cc1NC(=N)N` [Example 46, 3-[(Aminoiminomethyl)amino]-4-methoxybenzoic acid hydrochloride (1:1)], the “% Inhibition at 7 nM” value came out at 46%.
In the case of `N=C(N)Nc1cc(C(=O)O)ccc1O` [Example 47, 3-[(Aminoiminomethyl)amino]-4-hydroxybenzoic acid hydrochloride (1:1)], the “% Inhibition at 7 nM” value turned out to be 33%.
In turn, `N=C(N)Nc1cc(NC(=N)N)cc(C(=O)O)c1` [Example 49, 3,5-Bis-[(aminoiminomethyl)amino]benzoic acid hydrochloride, solvate with ethanol (10:15:2)] gave a negative-log IC50 (pIC50) of 2.82.
In turn, `N=C(N)Nc1cc(N)cc(C(=O)O)c1` [Example 50, Sodium 3-amino-5-[(aminoimino)methyl]aminobenzoate hydrate] gave a pIC50 of 2.70.
The molecule `N=C(N)Nc1cc(C=NO)cc(C(=O)O)c1` [Example 51, 3-[(Aminoiminomethyl)amino]-5-[(N-hydroxylimino)methyl]benzoic acid hydrate (4:3)] had a pIC50 of 3.10.
`CC(C)OC(C)C.CS(=O)(=O)Nc1c(CO)cc(C(=O)O)cc1NC(=N)N` [Example 52, 3-(Aminoiminomethyl)amino-5-hydroxymethyl-4-(methylsulfonyl)aminobenzoic acid hydrate complex with diisopropyl ether (10:10:1)] gave a pIC50 of 2.70.
